Results as given in patent US7026344B2, “Treating sickle cell disease” (priority 2000, dated 2006).

Tests used:
[1] = test system: erythroid progenitors (BFU-E colonies) from normal donors; test: BFU-E colony growth in methylcellulose culture, normal donors; format: cell-based, human
Experimental: (§1) BFU-E Colony Growth. Mononuclear cells were isolated from the peripheral blood of each patient studied by density gradient centrifugation using Histapaque-1077 (Sigma). Erythroid progenitors were obtained in methylcellulose culture. ZL was added on day 0 at 25, 50, 75, or 100 μM concentrations for 13–14 days at which time the number of BFU-E colonies were counted on an inverted microscope and harvested for hemoglobin determinations.
The cytotoxic effect of HU as been proposed as a basic mechanism involved in hemoglobin F induction. In the absence of this characteristic for ZL, whether γ gene expression would be, induced in erythroid progenitors obtained from normal donors was tested. Utilizing the same protocol, BFU-E colonies from normal donors wee analyzed in the presence of ZL at 0 to 100 μM concentrations. In normal erythroid progenitors, a decrease in BFU-E colony number from 94±30.6 to 10.1±2.4 (FIG. 3A) and an increase in hemoglobin F from 1.4±0.05% to […] (FIG. 3B) was observed. This pattern was similar to that obtained for Hb SS progenitors. Of note is the lower average BFU-E colony number for hemoglobin A progenitors as compared with hemoglobin S. This probably reflects the absence of hemolysis and increased RBC production in normals as compared to sickle cell patients. This represents a 9.3-fold decrease and a 4.3-fold increase in BFU-E and hemoglobin F, respectively.

[2] = test system: fetal hemoglobin production in normal erythroid progenitors; test: Hemoglobin F determination in erythroid progenitors, normal donors; format: cell-based, human
Experimental: as §1
Hemoglobin F determination. The erythroid progenitors were collected, washed in PBS then lysed at room temperature in 200 μl of water. The supernatant was split into two tubes, one for total hemoglobin determination and one for hemoglobin F determination. In brief, IgG (10 μl), 1.2 N NaOH (7 μl) and saturated (NH4)2SO4 (70 μl) were added to the hemoglobin F sample. The denatured hemoglobin was pelleted and the supernatant containing hemoglobin F was mixed with 500 μl of tetramethyl benzidine and 500 μl of H2O2 at room temperature then quantitated on a spectrophotometer at 600 nm. The percentage of fetal hemoglobin to total hemoglobin was determined.
The cytotoxic effect of HU as been proposed as a basic mechanism involved in hemoglobin F induction. […] Utilizing the same protocol, BFU-E colonies from normal donors wee analyzed in the presence of ZL at 0 to 100 μM concentrations. […]

[3] = test system: primary erythroid progenitors (BFU-E colonies) from Hb SS patients; settings: HU 100 μM, Hb SS patients of the HU cohort (Yang et al.); cited from earlier work
[4] = test system: fetal hemoglobin production in primary erythroid progenitors from Hb SS patients; settings: HU 100 μM, Hb SS patients of the HU cohort (Yang et al.); cited from earlier work

| SMILES | fold decrease in BFU-E ([1]; ZL 0 vs 100 μM) [fold] | BFU-E colony number ([1]; ZL 100 μM) | fold increase in hemoglobin F ([2]; ZL 0 vs 100 μM) [fold] | hemoglobin F ([2]; ZL 100 μM) [%] | BFU-E [3] | HbF [4] [%] |
| --- | --- | --- | --- | --- | --- | --- |
| CC(c1cc2ccccc2s1)N(O)C(N)=O (racemic) [ZL, (±)-1-(1-Benzo[b]thien-2-ylethyl)-1-hydroxyurea] | 9.3 | 10.1±2.4 | 4.3 | 6.0 |  |  |
| NC(=O)NO [HU, Hydroxyurea] |  |  |  |  | 7.2 | 19.4 |
